The subject of assay [1] is P. falciparum 3D7. The assay can be described thus: Asexual blood-stage growth inhibition assay, SYBR green method. The format is cell-based. To be noted: Plasmodium falciparum, 3D7, 72 h, ring-stage 3D7 parasites. How it is done: Asexual blood-stage EC50 assays. […] Compound stocks prepared in DMSO were plated using a Tecan D300e automated low volume liquid handler. Ring-stage 3D7 or Dd2 parasites (60 µL cells) (2% hematocrit, 0.5% parasitemia, final DMSO concentration 0.5%) were added to plates, incubated with compounds over a range of concentrations in technical triplicate for 72 h at 37 °C, 5% CO2, and then frozen (-80°C) overnight before analysis. […] Data were analyzed by non-linear regression using GraphPad Prism to determine the EC50 by fitting to the built-in equation (log(inhibitor) vs response-variable slope with four parameters).

The target in assay [2] is T1, P. falciparum DHODH (Plasmodium falciparum, UniProt Q08210).
T1 construct: His6 (N); made in house; host or cells: E. coli BL21-DE3 (phage-resistant)
T1 sequence (Q08210 158-569): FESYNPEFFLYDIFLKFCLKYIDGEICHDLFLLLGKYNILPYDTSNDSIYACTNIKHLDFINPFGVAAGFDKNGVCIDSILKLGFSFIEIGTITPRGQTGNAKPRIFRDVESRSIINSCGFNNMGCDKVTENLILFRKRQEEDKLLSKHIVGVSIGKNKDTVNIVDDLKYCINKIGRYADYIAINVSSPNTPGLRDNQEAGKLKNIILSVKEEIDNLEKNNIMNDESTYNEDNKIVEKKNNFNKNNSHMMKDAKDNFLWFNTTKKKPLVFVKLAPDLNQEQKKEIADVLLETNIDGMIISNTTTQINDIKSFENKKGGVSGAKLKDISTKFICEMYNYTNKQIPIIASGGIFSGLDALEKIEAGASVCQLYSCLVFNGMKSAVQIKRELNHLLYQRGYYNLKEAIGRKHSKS
The experiment in a line: DHODH inhibition, steady-state DCIP assay (PfDHODH). The format is biochemical. To be noted: recombinant PfDHODH, DCIP method, 25°C, 5 nM enzyme. How it is done:
(§1) Compound stocks were prepared at 10-100 mM in DMSO, and diluted working stocks in DMSO were generated as appropriate. Compounds were plated from DMSO stocks in 96 well plate format using a Tecan D300e digital dispenser to generate a 3-fold dilution series over a concentration range of 0.0003 -100 µM (or 30 µM), yielding a final DMSO concentration of 1% in the assay. The top concentration used in the dose response was determined by the initial DMSO stock concentrations:100 µM for 100 mM stocks, and 30 µM for 10 mM stocks. Triplicate rate data were collected at each inhibitor concentration. Inhibitory IC50 values were determined by fitting the data to log (inhibitor) vs response equation Y = bottom + (top - bottom)/(1 + 10A ((X - Log IC50))) in GraphPad Prism.

Assay [3] addresses T2, Human DHODH (Homo sapiens, UniProt Q02127).
T2 construct: C-terminal His6-tagged HsDHODH residues 29-395 in pET-22b (start ^29MATGDE); His6 (C); made in house; host or cells: E. coli BL21-DE3 (phage-resistant)
The assay can be described thus: DHODH inhibition, steady-state DCIP assay (human DHODH). It counts as biochemical. To be noted: recombinant HsDHODH, DCIP method, 25°C, 5 nM enzyme; top concentration 100 µM or 30 µM.
Source text: (§2) DOI: 10.1074/jbc.M206854200).
(§3) Proteins were expressed and purified on a Pharmacia FPLC using HisTrap HP column chromatography followed by gel filtration chromatography on a Pharmacia HiLoad 16/600 Superdex 200 column, and protein concentration determined based on OD280 using the previously described extinction coefficients (Kokkonda et al., 2020, J Med Chem, 63 (9), 4929-4956. DOI: 10.1021/acs.jmedchem.0c00311). Purified proteins were >95% pure based on SDS-PAGE analysis.
(§4) DHODH activity was monitored in a steady-state assay using the 2,6-dichloroindophenol (DCIP) method at 25°C in assay buffer (100 mM HEPES, pH 8.0, 150 mM NaCl, 1% glycerol, 0.1% Triton X-100 reduced) plus substrates 20 µM CoQD, 200 µM DHO, 120 µM DCIP, and 5 nM enzyme as previously described (Malmquist et al, 2008, Biochemistry, 47 (8), 2466-2475. DOI: 10.1021/bi702218c).
as §1, with “Prism. DSM265 ^2 was plated as an assay control in all studies.” for “Prism.”

Assay [4] has as its target P. vivax DHODH (Plasmodium vivax, UniProt A5K1N1). The assay can be described thus: DHODH inhibition, steady-state DCIP assay (PvDHODH). It counts as biochemical. To be noted: recombinant PvDHODH, DCIP method, 25°C, 5 nM enzyme; read-out: P. vivax DHODH (IC50).
Source text: as §2, §3, §4
as §1, with “Prism. DSM265 ^2 was plated as an assay control in all studies.” for “Prism.”

A value given as a limit tells only on which side of the number the result lay.

Sequence of P. vivax DHODH (A5K1N1 entry or part of it): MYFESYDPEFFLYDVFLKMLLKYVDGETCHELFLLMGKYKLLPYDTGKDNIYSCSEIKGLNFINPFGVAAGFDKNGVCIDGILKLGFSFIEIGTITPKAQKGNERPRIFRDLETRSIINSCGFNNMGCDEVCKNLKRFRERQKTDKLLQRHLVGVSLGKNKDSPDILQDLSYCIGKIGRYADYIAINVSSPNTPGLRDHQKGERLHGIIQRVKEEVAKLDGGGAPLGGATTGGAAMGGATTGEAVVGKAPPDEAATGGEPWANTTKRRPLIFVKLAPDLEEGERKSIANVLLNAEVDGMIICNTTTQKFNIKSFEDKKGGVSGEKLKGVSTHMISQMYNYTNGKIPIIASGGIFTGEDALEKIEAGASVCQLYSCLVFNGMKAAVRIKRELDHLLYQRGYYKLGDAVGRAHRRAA
T2 sequence (Q02127 29-395): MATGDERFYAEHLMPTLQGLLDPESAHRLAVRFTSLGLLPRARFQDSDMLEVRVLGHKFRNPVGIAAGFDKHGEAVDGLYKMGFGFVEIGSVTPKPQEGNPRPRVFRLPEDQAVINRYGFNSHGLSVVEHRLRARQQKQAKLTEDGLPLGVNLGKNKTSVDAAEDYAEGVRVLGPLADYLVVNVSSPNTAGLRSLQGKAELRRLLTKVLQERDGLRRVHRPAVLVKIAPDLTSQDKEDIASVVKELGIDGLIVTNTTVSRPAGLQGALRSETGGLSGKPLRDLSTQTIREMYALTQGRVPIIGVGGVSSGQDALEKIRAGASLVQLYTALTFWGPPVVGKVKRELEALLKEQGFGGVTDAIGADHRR

For `CCn1ccc2c([C@@](O)(CC)c3ccc(F)c(Cl)c3)n(C)nc2c1=O` (single isomer, unassigned) [1-34], the concentration for a half-maximal effect (EC50) in assay [1] was 0.3 nM. Also, the IC50 in assay [2] is 21 nM; in assay [3], 3900 nM; in assay [4], 4.1 nM.
Compound `CCn1ccc2c([C@](C)(O)c3cnc(C(F)(F)F)c(Cl)c3)n(C)nc2c1=O` (single isomer, unassigned) [1-36] had a concentration giving a half-maximal response (EC50) in assay [1] of 1.4 nM. For the same compound, the IC50 is 45 nM in assay [2], more than 100000 nM in assay [3] and 9.2 nM in assay [4].
In the same order, the values of `CCn1ccc2c([C@](O)(c3ccc(F)c(Cl)c3)C3CC3)n(C)nc2c1=O` (single isomer, unassigned) [1-38] are 1.5 nM, 17 nM, 88000 nM and 4.3 nM.
Compound `CCn1ccc2c([C@](C)(O)c3ccc(F)c(Cl)c3)n(C)nc2c1=O` (single isomer, unassigned) [1-40] came in with an EC50 in assay [1] of 0.42 nM. Also, the concentration for half-maximal inhibition (IC50) in assay [2] was found to be 17 nM; in assay [3], 80000 nM; in assay [4], 5.2 nM.
The compound `CCn1ccc2c([C@@](O)(CC)c3cnc(C(F)(F)F)c(Cl)c3)n(C)nc2c1=O` (single isomer, unassigned) [1-42] displayed an EC50 in assay [1] of 0.49 nM. Further, the half-inhibitory concentration (IC50) was determined as 13 nM in assay [2], 41000 nM in assay [3] and 7.9 nM in assay [4].
In turn, `CCn1ccc2c([C@](C)(O)c3ccc(C(F)(F)F)c(Cl)c3)n(C)nc2c1=O` (single isomer, unassigned) [1-46] yielded a concentration for a half-maximal effect (EC50) in assay [1] of 0.2 nM. Besides, the results for the concentration for half-maximal inhibition (IC50) in assay [2], in assay [3] and in assay [4] were 10 nM, 41000 nM and 5.8 nM, respectively.
Regarding `CCn1ccc2c([C@](O)(c3ccc(C(F)(F)F)nc3)C(C)C)n(C)nc2c1=O` (single isomer, unassigned) [1-48], the concentration giving a half-maximal response (EC50) in assay [1] was found to be 18 nM. The figures for the IC50 in assay [2], in assay [3] and in assay [4] were 81 nM, more than 100000 nM and 44 nM, respectively.
On to `CCn1ccc2c([C@@](O)(CC)c3ccc(C(F)(F)F)nc3)n(C)nc2c1=O` (single isomer, unassigned) [1-50], for which a half-maximal effect in assay [1] (EC50) was put at 1.5 nM. For the same compound, the IC50 in assay [2] was found to be 54 nM; in assay [3] it was 46000 nM; in assay [4], 27 nM.
`CC[C@@](O)(c1cnc(C(F)(F)F)c(Cl)c1)c1c2cnn(C3CC3)c(=O)c2nn1C1CC1` (single isomer, unassigned) [2-1] showed a half-maximal effective concentration (EC50) in assay [1] of 12 nM. Further, the IC50 in assay [2] stood at 29 nM; in assay [3], 2300 nM; in assay [4], 10 nM.
For `CCn1nc2c(=O)n(C3CC3)ncc2c1[C@@](O)(CC)c1cnc(C(F)(F)F)c(Cl)c1` (single isomer, unassigned) [2-3], the response in assay [1] was half-maximal at 9.9 nM (EC50). Further, the IC50 was determined as 29 nM in assay [2], 2700 nM in assay [3] and 11 nM in assay [4].
As for `CC[C@@](O)(c1ccc(C(F)(F)F)c(C#N)c1)c1c2cnn(C3CC3)c(=O)c2nn1C` (single isomer, unassigned) [2-5], in assay [1], the EC50 was found to be 1.3 nM. Further, the concentration for half-maximal inhibition (IC50) in assay [2] turned out to be 19 nM; in assay [3], 4800 nM; in assay [4] it was 19 nM.
On to `Cn1nc2c(=O)n(C3CC3)ncc2c1[C@](O)(c1ccc(C(F)(F)F)c(C#N)c1)C1CC1` (single isomer, unassigned) [2-7], for which, in assay [1], the EC50 came out at 4.2 nM. Besides, the half-inhibitory concentration (IC50) in assay [2] was 23 nM; in assay [3] it was more than 30000 nM; in assay [4] it was 17 nM.
In the same order, the values of `Cn1nc2c(=O)n(C3CC3)ncc2c1[C@](O)(c1ccc(C(F)(F)F)c(Cl)c1)C1CC1` (single isomer, unassigned) [2-11] are 1.9 nM, 9.6 nM, more than 30000 nM and 9.9 nM.
For the compound `CC[C@@](O)(c1ccc(C(F)(F)F)c(Cl)c1)c1c2cnn(C3CC3)c(=O)c2nn1C` (single isomer, unassigned) [2-15], in assay [1], the concentration giving a half-maximal response (EC50) was 0.32 nM. The IC50 came out at 6.2 nM in assay [2], 1700 nM in assay [3] and 9.8 nM in assay [4].
`CC[C@@](O)(c1ccc(F)c(Cl)c1)c1c2cnn(C3CC3)c(=O)c2nn1C` (single isomer, unassigned) [2-17] displayed an EC50 in assay [1] of 1.7 nM. Further, the IC50 in assay [2] stood at 8.4 nM; in assay [3] it was 2500 nM; in assay [4], 9.5 nM.
Turning to `CCn1ncc2c([C@@](O)(CC)c3ccc(C(F)(F)F)c(Cl)c3)n(C)nc2c1=O` (single isomer, unassigned) [2-19], the EC50 in assay [1] was 0.35 nM. The IC50 in assay [2] came out at 6.9 nM; in assay [3], 11000 nM; in assay [4] it was 2.9 nM.
Consider `Cn1nc2c(=O)n(C3CC3)cnc2c1[C@](C)(O)c1cnc(C(F)(F)F)c(Cl)c1` (single isomer, unassigned) [3-1], for which the 50% effective concentration (EC50) in assay [1] worked out at 2.2 nM. The IC50 was 21 nM in assay [2], more than 30000 nM in assay [3] and 7.9 nM in assay [4].
As for `Cn1nc2c(=O)n(C3CC3)cnc2c1[C@](O)(c1cnc(C(F)(F)F)c(Cl)c1)C1CC1` (single isomer, unassigned) [3-3], in assay [1], the midpoint of the response, the EC50, lay at 4 nM. Also, the figures for the IC50 in assay [2], in assay [3] and in assay [4] were 22 nM, more than 30000 nM and 8.3 nM, respectively.
In the same order, the values of `CC[C@@](O)(c1ccc(C(F)(F)F)nc1)c1c2ncn(C3CC3)c(=O)c2nn1C` (single isomer, unassigned) [3-7] are 1.6 nM, 27 nM, 14000 nM and 55 nM.
The like results for `Cn1nc2c(=O)n(C3CC3)cnc2c1[C@](O)(c1ccc(C(F)(F)F)nc1)C1CC1` (single isomer, unassigned) [3-9] were, in that order, 12 nM, 48 nM, more than 30000 nM and 59 nM.
Consider `CCn1cnc2c([C@](C)(O)c3ccc(C(F)(F)F)c(C#N)c3)n(C)nc2c1=O` (single isomer, unassigned) [3-11], for which, in assay [1], the concentration giving a half-maximal response (EC50) stood at 0.52 nM. Further, the results for the 50% inhibitory concentration (IC50) in assay [2], in assay [3] and in assay [4] were 32 nM, more than 100000 nM and 9.4 nM, respectively.
For `Cn1nc2c(=O)n(C3CC3)ccc2c1[C@](N)(c1cnc(C(F)(F)F)c(Cl)c1)C(F)(F)F` (single isomer, unassigned) [4-1], the EC50 in assay [1] was 2.6 nM. Moreover, the IC50 in assay [2] is 21 nM; in assay [3], more than 30000 nM; in assay [4], 13 nM.
In turn, `Cn1nc2c(=O)n(C3CC3)ccc2c1[C@](C)(N)c1ccc(C(F)(F)F)c(Cl)c1` (single isomer, unassigned) [4-4] returned an EC50 in assay [1] of 0.61 nM. The half-maximal inhibitory concentration (IC50) in assay [2] turned out to be 12 nM; in assay [3] it was 15000 nM; in assay [4], 9 nM.
Consider `CC[C@@](N)(c1ccc(C(F)(F)F)c(F)c1)c1c2ccn(C3CC3)c(=O)c2nn1C` (single isomer, unassigned) [4-5], for which it took 10 nM to reach a half-maximal effect in assay [1] (EC50). Besides, the half-maximal inhibitory concentration (IC50) in assay [2] was 16 nM; in assay [3], 1300 nM; in assay [4], 7 nM.
As for `CC[C@@](N)(c1ccc(C(F)(F)F)c(Cl)c1)c1c2ccn(C3CC3)c(=O)c2nn1C` (single isomer, unassigned) [4-8], the EC50 in assay [1] amounted to 1.1 nM. The results for the concentration for half-maximal inhibition (IC50) in assay [2], in assay [3] and in assay [4] were 9.3 nM, 1000 nM and 6.2 nM, respectively.

The EC50 is the concentration that produces a half-maximal response. The low end stands for greater potency, the high end for weaker potency. Usually IC50 stands for the midpoint of a concentration-inhibition curve.

These data come from patent publication EP4680608B1, “2,6-DIHYDRO-7H-PYRAZOLO[3,4-C]PYRIDIN-7-ONE DERIVATIVES AS ANTI-MALARIAL AGENTS” (MMV Medicines for Malaria Venture, priority 2024, dated 2025).
